{"source": "patent US12594267B2", "about": "“Capsid inhibitors for the treatment of HIV” (Gilead Sciences, Inc., priority 2018, dated 2026)", "key": {"[1]": {"experiment": "PK after oral administration of spray-dried dispersion (SDD) tablets in dogs", "format": "in vivo", "settings": "beagle dogs, 300 mg fixed dose", "protocol": "A tablet, prepared from a spray-dried dispersion of a sodium salt of the compound of Formula (Ia), was prepared in a composition shown in Table T below (with an outer film coating made of Opadry® II White 85F18422, wherein the outer film coating provides a 3% weight gain based on the uncoated tablet) and was administered orally at 300 mg fixed dose to 6 beagle dogs (Table U) and the pharmacokinetic (PK) profile was determined. […] Plasma concentrations of the compound of Formula (Ia) were maintained above the target trough concentration of 20 nM for at least 14 days (2 weeks)."}, "WT HXB2D": {"system": "WT HXB2D", "experiment": "Cytopathic antiviral assay in MT-2 cells, wild type HXB2D", "format": "cell-based, HIV-1", "settings": "mean ± s.d. of three experiments in triplicate", "protocol": "The antiviral activity of the compound of Formula (a) was tested against a panel of known HIV-1 mutants resistant to HIV PIs (ATV and DRV), NRTIs (TFV and FTC), NNRTIs (RPV and EFV) or INSTIs (RAL, EVG and DTG) using a cytopathic antiviral assay in MT-2 cells. The compound of Formula (Ia) was fully active against all tested mutants resistant to PIs (Table 11), NRTIs (Table 12), NNRTIs (Table 13) or INSTIs (Table 14)."}, "[2]": {"experiment": "Plasma PK after single oral administration in solution, dog", "format": "in vivo, Beagle Dog", "protocol": "An oral formulation containing a compound of Formula (Ia) in […], 20% propylene glycol, 45 PEG 300, and 30% 0.01 N HCl was prepared. The formulation was orally administered to male rat, dog, cynomolgus monkey, and rhesus monkey according to the doses shown in Table 8 below."}, "[3]": {"experiment": "PK after oral administration in liquid-filled capsules in dogs", "format": "in vivo, beagle dogs", "settings": "for bioavailability: oral, calculated based on AUC0-72h vs average IV AUC0-72h", "protocol": "A single dose of the compound of Formula (Ia), formulated as liquid-filled capsules (LFC) containing either 100% glycerol monocaprylocaprate or 20% caprylocaproyl polyoxyl-8 glycerides and 80% glycerol monocaprylocaprate was administered orally at 7.5 mg fixed dose to 6 male beagle dogs (Table 9). At 100 mg/mL of the compound of Formula (Ia), the AUCinf increased with increasing glycerol monocaprylocaprate content. For the formulation with 100% glycerol monocaprylocaprate, the AUCinf at 50 mg/mL was higher than that at 100 mg/mL.\nA single dose of the compound of Formula (Ia), formulated as liquid-filled capsules (LFC) containing 100% glycerol monocaprylocaprate, was administered orally at 7.5 mg fixed dose to 6 beagle dogs (Table S) and the pharmacokinetic (PK) profile was determined. […] Plasma concentrations of the compound of Formula (Ia) were maintained above the target trough concentration of 20 nM for at least 72 hours (3 days)."}, "[4]": {"settings": "dog, plasma, oral SDD tablet of the sodium salt (Table T composition, Opadry II White film coat), mean ± SD, n=6"}, "[5]": {"settings": "male, beagle, plasma, dog, single oral 4.0 mg/kg, solution in 5% ethanol/20% propylene glycol/45% PEG 300/30% 0.01 N HCl, mean ± SD, n=3"}, "[6]": {"settings": "dog, plasma, fasted, pentagastrin-pretreated male beagle dogs, oral LFC 7.5 mg fixed dose, 20% caprylocaproyl polyoxyl-8 glycerides and 80% glycerol monocaprylocaprate, 100 mg/mL, mean ± SD, n=6"}, "[7]": {"settings": "male, beagle, dog, plasma, po, 7.5 mg, fasted, pentagastrin-pretreated male beagle dogs, oral LFC 7.5 mg fixed dose, 100% glycerol monocaprylocaprate, 50 mg/mL, mean ± SD, n=6"}, "[8]": {"settings": "male, beagle, dog, plasma, po, 7.5 mg, fasted, pentagastrin-pretreated male beagle dogs, oral LFC 7.5 mg fixed dose, 100% glycerol monocaprylocaprate, 100 mg/mL, mean ± SD, n=6"}}, "note": "Like-named read-outs stand apart in the source and are kept apart here.", "data": [{"smiles": "CC(C)(C#Cc1ccc(-c2ccc(Cl)c3c(NS(C)(=O)=O)nn(CC(F)(F)F)c23)c([C@H](Cc2cc(F)cc(F)c2)NC(=O)Cn2nc(C(F)(F)F)c3c2C(F)(F)[C@@H]2C[C@H]32)n1)S(C)(=O)=O", "note": "[Formula (Ia), N—((S)-1-(3-(4-chloro-3-(methylsulfonamido)-1-(2,2,2-trifluoroethyl)-1H-indazol-7-yl)-6-(3-methyl-3-(methylsulfonyl)but-1-yn-1-yl)pyridin-2-yl)-2-(3,5-difluorophenyl)ethyl)-2-((3bS,4aR)-5,5-difluoro-3-(trifluoromethyl)-3b,4,4a,5-tetrahydro-1H-cyclopropa[3,4]cyclopenta[1,2-c]pyrazol-1-yl)acetamide]", "values": [{"measurement": "Time plasma concentrations maintained above the target trough concentration of 20 nM", "setting": "[1]; oral SDD tablet of the sodium salt", "result": "at least 14 days"}, {"measurement": "AUC(0-inf)", "setting": "[1]; [4]", "result": "18.5 ± 11.1", "unit": "µM·h"}, {"measurement": "Cmax", "setting": "[1]; [4]", "result": "718 ± 409", "unit": "nM"}, {"measurement": "Tmax", "setting": "[1]; [4]", "result": "5.3 ± 3.3", "unit": "h"}, {"measurement": "AUC(0-t)", "setting": "[1]; dog, plasma, oral SDD tablet of the sodium salt (Table T composition, Opadry II White film coat), mean ± SD, n=6, read-out: AUC0-72h", "result": "15.8 ± 10", "unit": "µM·h"}, {"measurement": "concentration at 72 h", "setting": "[1]; dog, plasma, oral SDD tablet of the sodium salt (Table T composition, Opadry II White film coat), mean ± SD, n=6, read-out: C72h", "result": "61.4 ± 30", "unit": "nM"}, {"measurement": "EC50", "setting": "WT HXB2D; Human immunodeficiency virus 1, MT2, read-out: WT HXB2D EC50, MT-2 cells, INSTI-resistance panel (Table 14)", "result": "0.13 ± 0.03", "unit": "nM"}, {"measurement": "EC50", "setting": "WT HXB2D; Human immunodeficiency virus 1, MT2, read-out: WT HXB2D EC50, MT-2 cells, NNRTI-resistance panel (Table 13)", "result": "0.18 ± 0.02", "unit": "nM"}, {"measurement": "EC50", "setting": "WT HXB2D; MT-2 cells, PI-resistance panel (Table 11), read-out: WT HXB2D EC50", "result": "0.24 ± 0.14", "unit": "nM"}, {"measurement": "F % (bioavailability), in words", "setting": "[2]; dogs, oral solution", "result": "moderate"}, {"measurement": "bioavailability", "setting": "[2]; male, beagle, plasma, dog, single oral 4.0 mg/kg, same solution, calculated based on AUC0-72h, mean ± SD, n=3, read-out: F (oral bioavailability)", "result": "22.1 ± 8.4", "unit": "%"}, {"measurement": "AUC(0-inf)", "setting": "[2]; [5]", "result": "16500 ± 10400", "unit": "µM·h"}, {"measurement": "Cmax", "setting": "[2]; [5]", "result": "471000 ± 203000", "unit": "nM"}, {"measurement": "Tmax", "setting": "[2]; [5]", "result": "10.7 ± 11.5", "unit": "h"}, {"measurement": "AUC(0-t)", "setting": "[2]; male, beagle, plasma, dog, single oral 4.0 mg/kg, solution in 5% ethanol/20% propylene glycol/45% PEG 300/30% 0.01 N HCl, mean ± SD, n=3, read-out: AUC0-72h", "result": "11400 ± 4320", "unit": "µM·h"}, {"measurement": "Time plasma concentrations maintained above the target trough concentration of 20 nM", "setting": "[3]; beagle dogs, oral liquid-filled capsules, 100% glycerol monocaprylocaprate, 7.5 mg fixed dose", "result": "at least 72 hours"}, {"measurement": "Tmax", "setting": "[3]; beagle, dog, plasma, po, 7.5 mg, beagle dogs, oral liquid-filled capsules, 100% glycerol monocaprylocaprate, 7.5 mg fixed dose, 50 mg/mL (Table S), mean ± SD, n=6", "result": "11 ± 10.1", "unit": "h"}, {"measurement": "AUC(0-t)", "setting": "[3]; beagle, dog, plasma, po, 7.5 mg, beagle dogs, oral liquid-filled capsules, 100% glycerol monocaprylocaprate, 7.5 mg fixed dose, 50 mg/mL (Table S), mean ± SD, n=6, read-out: AUC0-72h", "result": "5.07 ± 4.65", "unit": "µM·h"}, {"measurement": "AUC(0-t)", "setting": "[3]; beagle, dog, plasma, po, 7.5 mg, beagle dogs, oral liquid-filled capsules, 100% glycerol monocaprylocaprate, 7.5 mg fixed dose, 50 mg/mL (Table S), mean ± SD, n=6, read-out: AUC0-14d", "result": "108 ± 16", "unit": "µM·h"}, {"measurement": "concentration at 72 h", "setting": "[3]; dog, plasma, beagle dogs, oral liquid-filled capsules, 100% glycerol monocaprylocaprate, 7.5 mg fixed dose, 50 mg/mL (Table S), mean ± SD, n=6, read-out: C72h", "result": "20.1 ± 24.4", "unit": "nM"}, {"measurement": "AUC(0-inf)", "setting": "[3]; [6]", "result": "1.3 ± 0.634", "unit": "µM·h"}, {"measurement": "Cmax", "setting": "[3]; [6]", "result": "53.2 ± 16.7", "unit": "nM"}, {"measurement": "Tmax", "setting": "[3]; [6]", "result": "7.7 ± 8", "unit": "h"}, {"measurement": "AUC(0-t)", "setting": "[3]; dog, plasma, fasted, pentagastrin-pretreated male beagle dogs, oral LFC 7.5 mg fixed dose, 20% caprylocaproyl polyoxyl-8 glycerides and 80% glycerol monocaprylocaprate, 100 mg/mL, mean ± SD, n=6, read-out: AUC0-72h", "result": "1.18 ± 0.575", "unit": "µM·h"}, {"measurement": "bioavailability", "setting": "[3]; male, beagle, dog, plasma, 7.5 mg, as above (20%/80% LFC, 100 mg/mL), mean ± SD, n=6", "result": "11 ± 4", "unit": "%"}, {"measurement": "bioavailability", "setting": "[3]; male, beagle, dog, plasma, 7.5 mg, as above (100% glycerol monocaprylocaprate LFC, 50 mg/mL), mean ± SD, n=6", "result": "22 ± 10", "unit": "%"}, {"measurement": "bioavailability", "setting": "[3]; male, beagle, dog, plasma, 7.5 mg, as above (100% glycerol monocaprylocaprate LFC, 100 mg/mL), mean ± SD, n=6", "result": "16 ± 9", "unit": "%"}, {"measurement": "AUC(0-inf)", "setting": "[3]; [7]", "result": "2.33 ± 1.35", "unit": "µM·h"}, {"measurement": "Cmax", "setting": "[3]; [7]", "result": "82.7 ± 32.1", "unit": "nM"}, {"measurement": "Tmax", "setting": "[3]; [7]", "result": 4, "unit": "h"}, {"measurement": "AUC(0-t)", "setting": "[3]; male, beagle, dog, plasma, po, 7.5 mg, fasted, pentagastrin-pretreated male beagle dogs, oral LFC 7.5 mg fixed dose, 100% glycerol monocaprylocaprate, 50 mg/mL, mean ± SD, n=6, read-out: AUC0-72h", "result": "2.18 ± 1.24", "unit": "µM·h"}, {"measurement": "AUC(0-inf)", "setting": "[3]; [8]", "result": "1.87 ± 1.19", "unit": "µM·h"}, {"measurement": "Cmax", "setting": "[3]; [8]", "result": "71.2 ± 25.8", "unit": "nM"}, {"measurement": "Tmax", "setting": "[3]; [8]", "result": "5 ± 1.1", "unit": "h"}, {"measurement": "AUC(0-t)", "setting": "[3]; male, beagle, dog, plasma, po, 7.5 mg, fasted, pentagastrin-pretreated male beagle dogs, oral LFC 7.5 mg fixed dose, 100% glycerol monocaprylocaprate, 100 mg/mL, mean ± SD, n=6, read-out: AUC0-72h", "result": "1.67 ± 1.04", "unit": "µM·h"}]}]}
